Where “and” joins values, the source holds several entries; their conditions need not be identical. Identical values can stand only once. Positions of bridges follow the written chain, without caps; N, C: chain ends. Non-standard residues stand in square brackets, D forms with d. Residues, ends and D or L forms follow the SMILES beside them. Chains are numbered I, II in the order given.
Assays:
PC3 cells [1] = test: TUNEL assay, PC3; assay type: cell-based; settings: PC3, 150 µM, 48 h
Method: (§1) 600,000 PC3 cells or 500,000 HeLa cells were plated in 60-mm dishes or 6-well plates respectively to allow them to attach overnight at 37°C with 5% CO2. PC3 cells were subsequently treated with appropriate treatments for 24, 36 and 48 h while HeLa cells were treated with 1 µl of either the caspase inhibitor z-VAD-fmk or z-FA-fmk (both from Biovision), containing appropriate treatments, for 24 h. The cells were fixed with 4% paraformaldehyde for 30 min and permeabilized with 0.1% Triton X-100 in 0.1% sodium citrate buffer for 3 mins. Labeled dUTP were added along with the terminal deoxynucleotidyl transferase dUTP nick end labeling (TUNEL) (TUNEL kit from Roche) as described in the kit. Samples were analyzed using a Becton Dickinson FACS Canto flow cytometer as specified above.

HeLa cells [2] = test: Live/Dead assay by flow cytometry, HeLa; assay type: cell-based; settings: ± standard error, at least 4 replicates
Method: PC3 or HeLa cells were seeded at 400,000 or 500,000 cells per well respectively in 6-well tissue culture plates (BD Falcon) and allowed to attach overnight at 37°C with 5% CO2. The cells were incubated with different concentrations of d-wrwycr for 24 or 48 h respectively before the cells were lifted off from the plate. Cell pellets were resuspended in 200 µl of dye solution containing either cell-permeable calcein AM and/or cell-impermeant ethidium homodimer according to the manufacturer's protocol (Live/dead cytotoxicity kit for mammalian cells, Invitrogen and reference). Data were collected in BDFacs Canto and analyzed using FACSDiva software (Becton-Dickenson).

DuPro-1 cells = assay type: cell-based; settings: MTT, DuPro-1 cells, 48 h
γH2AX in PC3 cells = test: γH2AX foci by microscopy and flow cytometry; assay type: cell-based; settings: PC3, 200 µM, flow cytometry
Method: DAPI (5 μg/ml) was used to stain the nucleus. The stained cells on the coverslips were mounted on the glass slides and observed with a Zeiss inverted microscope with AxioVision 4.8 software and using the 100× magnification. Foci of 53BP1 were counted manually and the average number of foci per cell was calculated. […] They were subsequently treated with either 50-200 μM […] or 50-100 μM […] or 0.5-1 μM doxorubicin or combination treatment for 0, 12, 24, 36 and 48 h. […] Samples were analyzed using a Becton Dickinson FACS Canto flow cytometer at a forward scatter voltage of 25 V, side-scatter voltage of 400 V, and FITC channel at a voltage of 400 V.

LnCAP cells = assay type: cell-based; settings: 48 h
Du145 cells = assay type: cell-based; settings: 24 h
caspase-3 in PC3 cells = test: Caspase-3 assay (Ac-DEVD-AFC cleavage); assay type: cell-based; settings: PC3, 50–200 µM, 12–48 h
Method: 400,000 PC3 cells were plated in a 6-well plate (BD Falcon) at a concentration of 200,000 cells/ml and were allowed to attach overnight at 37°C with 5% CO2 and treated with 50–200 µM wrwycr for 12, 24 or 48 h. The wrwycr-treated cell lysates were incubated with Ac-DEVD (Asp-Glu-Val-Asp)-AFC, a caspase-3 substrate, for 1 h. Activated caspase-3 will cleave between the DEVD and AFC, releasing latter, a fluorogenic compound that can be excited at 400 nm and the resulting emission can be read at 505 nm by the Spectra Max Gemini XS fluorometer plate reader using Softmax Pro version 3.1.2 software. The total protein concentration was calculated for each sample by using BioRad protein assay kit. To normalize the fluorescence reading (RFU) for each sample, the reading for each sample was divided by the corresponding protein concentration of the samples.

[3] = system: Holliday junctions vs replication forks; settings: in vitro; ref [20], [22], [26]; cited from earlier work
Excerpt: Our laboratory previously identified peptides and small molecules that bind to Holliday junctions and replication fork mimics, branched DNA structures that are intermediates in DNA repair [18]–[23]. […] In addition to binding HJs in vitro, peptide wrwycr also binds Holliday junctions in vivo [24] and is synergistically toxic with DNA-damaging agents including mitomycin C, UV, H2O2, and topoisomerase inhibitors in bacteria ([25]; Naili, ...

53BP1 in PC3 cells = test: 53BP1 foci by fluorescence microscopy; assay type: cell-based; settings: PC3, 48 h
Method: 200,000 PC3 cells were plated on cover-slips (Fisherbrand) mounted on each well of the 12-well dishes and allowed to attach overnight at 37°C incubator with 5% CO2. The cells were treated with 50, 100, 150, or 200 µM of wrwycr, or 1, 5, 10, 25, or 50 µM of wrwyrggrywrw for 48 h. […] The samples were probed with 1∶500 diluted mouse anti-γH2AX antibody (Millipore) or 1∶1000 diluted rabbit anti-53BP1 (Novus-Biologicals) with overnight incubation followed by Dylight anti-mouse or anti-rabbit secondary antibodies (Biolegend) respectively. DAPI (5 µg/ml) was used to stain the nucleus. The stained cells on the coverslips were mounted on the glass slides and observed with a Zeiss inverted microscope with AxioVision 4.8 software and using the 100× magnification. Foci of 53BP1 were counted manually and the average number of foci per cell was calculated.

PPC-1 cells = test: MTT assay of cell viability, PPC-1; assay type: cell-based; settings: 48 h
PC3 cells [4] = settings: 48 h
Method: 20,000 PC3 cells were plated overnight in 96 well plates (Costar) at a concentration of 200,000 cells/ml. They are treated with the peptides, doxorubicin, docetaxel alone, or in combination for different time period incubation and the cell viability was determined by MTT assay as described. The percentage survival of the cells with different treatments was calculated using DMSO-vehicle control-treated cells as the standard.

HeLa cells [5] = test: TUNEL assay, HeLa, with z-VAD-fmk or z-FA-fmk; assay type: cell-based; settings: 24 h
Method: as §1

With `N=C(N)NCCC[C@@H](NC(=O)[C@@H](CSSC[C@@H](NC(=O)[C@@H](Cc1ccc(O)cc1)NC(=O)[C@@H](Cc1c[nH]c2ccccc12)NC(=O)[C@@H](CCCNC(=N)N)NC(=O)[C@H](N)Cc1c[nH]c2ccccc12)C(=O)N[C@H](CCCNC(=N)N)C(N)=O)NC(=O)[C@@H](Cc1ccc(O)cc1)NC(=O)[C@@H](Cc1c[nH]c2ccccc12)NC(=O)[C@@H](CCCNC(=N)N)NC(=O)[C@H](N)Cc1c[nH]c2ccccc12)C(N)=O` [wrwycr, Trp-Arg-Trp-Tyr-Cys-Arg] (I: H-[dW][dR][dW][dY][dC][dR]-NH2 / II: H-[dW][dR][dW][dY][dC][dR]-NH2; disulfide I:5-II:5; N-terminus assumed) the “TUNEL positive cell population” value (PC3 cells [1]) was 65%, the “Hela population % Dead” value (HeLa cells [2]; 100 µM wrwycr) was 5.4±2.0% and the “Hela population %Live” value (HeLa cells [2]; 100 µM wrwycr) was 90.4±2.3%. For the same compound, the “Hela population % Dead” value (HeLa cells [2]; 150 µM wrwycr) was 7.8±2.7%, the “Hela population %Live” value (HeLa cells [2]; 150 µM wrwycr) was 86.3±2.5% and the “Hela population % Dead” value (HeLa cells [2]; 200 µM wrwycr) was 12.7±6.0%. For the same compound, the “Hela population %Live” value (HeLa cells [2]; 200 µM wrwycr) was 79% and 79.3±4.5%, the IC50 (DuPro-1 cells) was “the same IC50 as the PC3 cell line” and the γH2AX positive cells (γH2AX in PC3 cells; after 36–48 h) was 20–35%. For the same compound, the γH2AX positive cells (γH2AX in PC3 cells; between 12–24 h) was 2–5%, the IC50 (LnCAP cells) was 100 to 150 µM and the IC50 (Du145 cells) was 150 to 200 µM. The “caspase-3 activation compared to DMSO control” value (caspase-3 in PC3 cells) was “no significant activation of caspase-3”, the “higher affinity for HJs than replication forks” value [3] was 2–5 fold and the “accumulation of 53BP1 foci” value (53BP1 in PC3 cells) was “accumulation of 53BP1 protein in a dose-dependent manner”. For the same compound, the IC50 (PPC-1 cells) was “the same IC50 as the PC3 cell line”, the IC50 (PC3 cells [4]) was 100 µM and the TUNEL-positive cells (HeLa cells [5]; 100 µM wrwycr) was 13%. The “TUNEL positive cells with caspase inhibitor z-VAD-fmk versus mock inhibitor z-FA-fmk” value (HeLa cells [5]) was “No significant difference”.
